Laboratory results taken from US11623922B2, “Compounds” (INFLAZOME LIMITED, priority 2017, dated 2023).

Columns and labels:
NLRP3 [1] = biological target: T1, NLRP3 (Homo sapiens, UniProt Q96P20); assay: THP-1 cells pyroptosis assay; type: cell-based; design: Seed THP-1 cells (25,000 cells/well) containing 1.0 μg/ml LPS in 40 μl of RPMI medium; host or cells: THP-1 cells; conditions: NLRP3 inhibitory activity, 1.0 μg/ml LPS, nigericin 5 μM, resazurin readout
Protocol: The cells were routinely passaged and grown to confluency (˜10^6 cells/ml). On the day of the experiment, THP-1 cells were harvested and resuspended into RPMI medium (without FBS). The cells were then counted and viability (>90%) checked by Trypan blue (Sigma #T8154). […] To this diluted cell solution was added LPS (Sigma #L4524) to give a 1 μg/ml Final Assay Concentration (FAC). 40 μl of the final preparation was aliquoted into each well of a 96-well plate. The plate thus prepared was used for compound screening.
The following method step-by-step assay was followed for compound screening. • 1. […] Incubate for 3 hrs at 37° C. in 5% CO2 • 4. Add 5 μl nigericin (Sigma #N7143) (FAC 5 μM) to all wells • 5. Incubate for 1 hr at 37° C. and 5% CO2 • 6. At the end of the incubation period, spin plates at 300×g for 3 mins and remove supernatant • 7. Then add 50 μl of resazurin (Sigma #R7017) (FAC 100 μM resazurin in RPMI medium without FBS) and incubate plates for a further 1-2 hrs at 37° C. and 5% CO2 • 8. […] IC50 data is fitted to a non-linear regression equation (log inhibitor vs response-variable slope 4-parameters)

NLRP3 [2] = biological target: T1, NLRP3; assay: Human whole blood IL1β release assay; type: cell-based; design: Plate out 80 μl of whole blood containing 1 μg/ml of LPS in 96-well, clear bottom cell culture plate; from tissue; host or cells: human whole blood from healthy donors; conditions: NLRP3 inhibitory activity, 1 μg/ml LPS, nigericin 10 μM, IL-1β by AlphaLisa, read-out: HWB IC50
Protocol: For systemic delivery, the ability to inhibit NLRP3 when the compounds are present within the bloodstream is of great importance. For this reason, the NLRP3 inhibitory activity of a number of compounds in human whole blood was investigated in accordance with the following protocol.
Human whole blood in Li-heparin tubes was obtained from healthy donors from a volunteer donor panel. • 1. […] Incubate for 3 hrs at 37° C., 5% CO2 • 4. Add 10 μl nigericin (Sigma #N7143) (10 μM FAC) to all wells • 5. Incubate for 1 hr at 37° C., 5% CO2 • 6. At the end of the incubation period, spin plates at 300×g for 5 mins to pellet cells and remove 20 μl of supernatant and add to 96-well v-bottom plates for IL-1β analysis (note: these plates containing the supernatants can be stored at −80° C. to be analysed at a later date) • 7. IL-1β was measured according to the manufacturer protocol (Perkin Elmer-AlphaLisa IL-1 Kit AL220F-5000) • 8. IC50 data is fitted to a non-linear regression equation (log inhibitor vs response-variable slope 4-parameters)

[3] = PK protocol, intravenous administration in rats; type: in vivo; conditions: rat, 1 mg/kg, male Sprague Dawley rats, plasma; for Vd: read-out: Vdss
Protocol: Pharmacokinetic parameters were determined in male Sprague Dawley rats (Vital River Laboratory Animal Technology Co Ltd, Beijing, China, 7-9 weeks old). Animals were individually housed during the study and maintained under a 12 h light/dark cycle. Animals had free access to food and water.
For intravenous administration, compounds were formulated as a solution in DMSO:PBS [10:90] in 2 mL/kg dosing volume and administered via tail vein.
Serial blood samples (about 200 μL) were taken from each animal at each of 8 time-points post dose (0.083, 0.25, 0.5, 1, 2, 4, 8 and 24 h). Samples were held on ice for no longer than 30 minutes before centrifugation (5,696 rpm (3,000 g) for 15 minutes) for plasma generation. Plasma was frozen on dry ice prior to bioanalysis. PK parameters were generated from LC-MS/MS data using Phoenix WinNonlin 6.3 software.

T1 sequence (Q96P20 whole entry): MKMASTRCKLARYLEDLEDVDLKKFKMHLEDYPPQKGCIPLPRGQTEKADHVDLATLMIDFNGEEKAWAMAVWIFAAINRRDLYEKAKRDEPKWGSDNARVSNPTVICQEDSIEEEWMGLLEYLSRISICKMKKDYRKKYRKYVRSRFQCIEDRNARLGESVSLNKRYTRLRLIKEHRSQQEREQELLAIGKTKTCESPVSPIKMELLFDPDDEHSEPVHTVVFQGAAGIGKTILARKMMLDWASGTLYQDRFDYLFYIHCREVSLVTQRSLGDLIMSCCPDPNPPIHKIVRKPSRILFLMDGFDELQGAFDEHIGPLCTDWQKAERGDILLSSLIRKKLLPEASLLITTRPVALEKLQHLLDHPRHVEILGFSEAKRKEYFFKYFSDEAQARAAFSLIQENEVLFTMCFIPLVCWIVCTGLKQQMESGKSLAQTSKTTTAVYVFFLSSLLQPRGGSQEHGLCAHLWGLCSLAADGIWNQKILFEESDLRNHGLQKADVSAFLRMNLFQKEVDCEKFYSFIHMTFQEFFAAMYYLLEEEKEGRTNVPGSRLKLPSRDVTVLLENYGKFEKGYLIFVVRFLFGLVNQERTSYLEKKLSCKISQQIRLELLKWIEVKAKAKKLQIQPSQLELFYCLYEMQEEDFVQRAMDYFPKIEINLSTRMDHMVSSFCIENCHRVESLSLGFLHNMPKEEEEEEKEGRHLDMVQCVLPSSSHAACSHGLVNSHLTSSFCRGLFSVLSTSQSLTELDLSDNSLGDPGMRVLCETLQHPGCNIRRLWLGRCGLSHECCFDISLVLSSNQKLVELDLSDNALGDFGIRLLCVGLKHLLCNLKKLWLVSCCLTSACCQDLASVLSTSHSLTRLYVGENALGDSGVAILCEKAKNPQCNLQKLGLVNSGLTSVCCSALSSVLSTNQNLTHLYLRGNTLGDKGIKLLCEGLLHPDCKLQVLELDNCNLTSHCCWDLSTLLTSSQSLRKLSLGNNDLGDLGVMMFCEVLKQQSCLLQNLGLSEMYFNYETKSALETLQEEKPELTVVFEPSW

| Molecule | IC50 (NLRP3 [1]) [nM] | IC50 (NLRP3 [2]) [nM] | AUC [3] [ng·h/mL] | clearance [3] [mL/min/kg] | half-life [3] [h] | Vd [3] [L/kg] |
| --- | --- | --- | --- | --- | --- | --- |
| 5-(Azetidin-1-ylmethyl)-N-((4-fluoro-2,6-diisopropylphenyl) carbamoyl)-1-methyl-1H-pyrazole-3-sulfonimidamide [Example 23] | < 100 | < 5000 |  |  |  |  |
| COc1cc(-c2ccc3c(c2NC(=O)NS(=N)(=O)c2ccn(C(C)C)n2)CCC3)ccn1 (racemic) [Example 14, 1-Isopropyl-N-((5-(2-methoxypyridin-4-yl)-2,3-dihydro-1H-inden-4-yl)carbamoyl)-1H-pyrazole-3-sulfonimidamide] | < 100 | < 500 | 1740 | 9.6 | 0.9 | 0.34 |
| CC(C)n1cc(Cl)c(S(=N)(=O)NC(=O)Nc2c3c(cc4c2CCC4)CCC3)n1 (centres unmarked) [Example 2, 4-Chloro-N-((1,2,3,5,6,7-hexahydro-s-indacen-4-yl)carbamoyl)-1-iso-propyl-1H-pyrazole-3-sulfonimidamide] | < 100 | < 5000 |  |  |  |  |
| C[C@@H](O)Cn1ccc(S(=N)(=O)NC(=O)Nc2c3c(cc4c2CCC4)CCC3)n1 (stereo partly drawn) [Example 3, N-((1,2,3,5,6,7-Hexahydro-s-indacen-4-yl)carbamoyl)-1-((R)-2-hydroxypropyl)-1H-pyrazole-3-sulfonimidamide] | < 100 | < 500 | 2250 | 7.4 | 2.7 | 0.75 |
| CCN(CC)CCCS(=N)(=O)NC(=O)Nc1c2c(cc3c1CCC3)CCC2 (centres unmarked) [Example 6, 3-(Diethylamino)-N-((1,2,3,5,6,7-hexahydro-s-indacen-4-yl)carbamoyl) propane-1-sulfonimidamide] | < 10000 |  |  |  |  |  |
| CC(C)N1CC(S(=N)(=O)NC(=O)Nc2c3c(cc4c2CCC4)CCC3)C1 (centres unmarked) [Example 7, N-((1,2,3,5,6,7-Hexahydro-s-indacen-4-yl)carbamoyl)-1-isopropyl-azetidine-3-sulfonimidamide] | < 5000 | < 5000 |  |  |  |  |
| CN(C)CCn1ccc(S(=N)(=O)NC(=O)Nc2c3c(cc4c2CCC4)CCC3)n1 (centres unmarked) [Example 10, 1-(2-(Dimethylamino)ethyl)-N-((1,2,3,5,6,7-hexahydro-s-indacen-4-yl)carbamoyl)-1H-pyrazole-3-sulfonimidamide] | < 500 | < 500 |  |  |  |  |
| COc1cc(-c2ccc3c(c2NC(=O)NS(=N)(=O)c2nn(C(C)C)cc2Cl)CCC3)ccn1 (centres unmarked) [Example 11, 4-Chloro-1-isopropyl-N-((5-(2-methoxypyridin-4-yl)-2,3-dihydro-1H-inden-4-yl)carbamoyl)-1H-pyrazole-3-sulfonimidamide] | < 100 | < 1000 | 2720 | 6.1 | 1 | 0.45 |
| CC(C)c1cc(F)cc(-c2ccnc(C#N)c2)c1NC(=O)NS(=N)(=O)c1nn(C(C)C)cc1Cl (centres unmarked) [Example 12, 4-Chloro-N-((2-(2-cyanopyridin-4-yl)-4-fluoro-6-isopropylphenyl)carbamoyl)-1-isopropyl-1H-pyrazole-3-sulfonimidamide] | < 100 | < 500 |  |  |  |  |
| COc1cc(-c2cc(F)cc(C(C)C)c2NC(=O)NS(=N)(=O)c2nn(C(C)C)cc2Cl)ccn1 (centres unmarked) [Example 13, 4-Chloro-N-((4-fluoro-2-isopropyl-6-(2-methoxypyridin-4-yl)phenyl)carbamoyl)-1-isopropyl-1H-pyrazole-3-sulfonimidamide] | < 100 | < 1000 |  |  |  |  |
| CC(C)c1cc(F)cc(-c2ccnc(C#N)c2)c1NC(=O)NS(=N)(=O)c1ccn(C(C)C)n1 (centres unmarked) [Example 15, N-((2-(2-Cyanopyridin-4-yl)-4-fluoro-6-isopropylphenyl)carbamoyl)-1-isopropyl-1H-pyrazole-3-sulfonimidamide] | < 1000 | < 1000 |  |  |  |  |
| COc1cc(-c2cc(F)cc(C(C)C)c2NC(=O)NS(=N)(=O)c2ccn(C(C)C)n2)ccn1 (centres unmarked) [Example 16, N-((4-Fluoro-2-isopropyl-6-(2-methoxypyridin-4-yl)phenyl)carbamoyl)-1-isopropyl-1H-pyrazole-3-sulfonimidamide] | < 100 | < 1000 |  |  |  |  |
| COc1cc(-c2ccc3c(c2NC(=O)NS(=N)(=O)c2ccn(C[C@@H](C)O)n2)CCC3)ccn1 (stereo partly drawn) [Example 17, 1-((R)-2-Hydroxypropyl)-N-((5-(2-methoxypyridin-4-yl)-2,3-dihydro-1H-inden-4-yl)carbamoyl)-1H-pyrazole-3-sulfonimidamide] | < 100 | < 500 |  |  |  |  |
| COc1cc(-c2cc(F)cc(C(C)C)c2NC(=O)NS(=N)(=O)c2ccn(C[C@@H](C)O)n2)ccn1 (stereo partly drawn) [Example 19, N-((4-Fluoro-2-isopropyl-6-(2-methoxypyridin-4-yl)phenyl)carbamoyl)-1-((R)-2-hydroxypropyl)-1H-pyrazole-3-sulfonimidamide] | < 100 | < 1000 |  |  |  |  |
| CC(c1cc(S(=N)(=O)NC(=O)Nc2c3c(cc4c2CCC4)CCC3)nn1C)N1CCC1 (centres unmarked) [Example 22, 5-(1-(Azetidin-1-yl)ethyl)-N-((1,2,3,5,6,7-hexahydro-s-indacen-4-yl)carbamoyl)-1-methyl-1H-pyrazole-3-sulfonimidamide] | < 100 | < 500 |  |  |  |  |
| CC(C)n1ccc(S(=N)(=O)NC(=O)Nc2c(-c3ccncc3)cc(F)c3c2CCC3)n1 (centres unmarked) [Example 24, N-((7-Fluoro-5-(pyridin-4-yl)-2,3-dihydro-1H-inden-4-yl)carbamoyl)-1-isopropyl-1H-pyrazole-3-sulfonimidamide] | < 100 | < 500 |  |  |  |  |
| C[C@@H](O)Cn1ccc(S(=N)(=O)NC(=O)Nc2c(-c3ccncc3)cc(F)c3c2CCC3)n1 (stereo partly drawn) [Example 25, N-((7-Fluoro-5-(pyridin-4-yl)-2,3-dihydro-1H-inden-4-yl)carbamoyl)-1-((R)-2-hydroxypropyl)-1H-pyrazole-3-sulfonimidamide] | < 100 | < 500 |  |  |  |  |
| CC(C)n1cc(Cl)c(S(=N)(=O)NC(=O)Nc2c(-c3ccncc3)cc(F)c3c2CCC3)n1 (centres unmarked) [Example 26, 4-Chloro-N-((7-fluoro-5-(pyridin-4-yl)-2,3-dihydro-1H-inden-4-yl)carbamoyl)-1-isopropyl-1H-pyrazole-3-sulfonimidamide] | < 100 | < 500 |  |  |  |  |
| COc1cc(-c2ccc3c(c2NC(=O)N[S@@](=N)(=O)c2ccn(C(C)C)n2)CCC3)ccn1 [Example 27, (R)-1-Isopropyl-N-((5-(2-methoxypyridin-4-yl)-2,3-dihydro-1H-inden-4-yl)carbamoyl)-1H-pyrazole-3-sulfonimidamide] | < 100 | < 500 |  |  |  |  |
| COc1cc(-c2ccc3c(c2NC(=O)N[S@](=N)(=O)c2ccn(C(C)C)n2)CCC3)ccn1 [Example 28, (S)-1-Isopropyl-N-((5-(2-methoxypyridin-4-yl)-2,3-dihydro-1H-inden-4-yl)carbamoyl)-1H-pyrazole-3-sulfonimidamide] | < 1000 | < 5000 |  |  |  |  |
| N-((2-(2-Cyanopyridin-4-yl)-4-fluoro-6-isopropylphenyl)carbamoyl)-1-((R)-2-hydroxypropyl)-1H-pyrazole-3-sulfonimidamide [Example 18] | < 500 | < 500 |  |  |  |  |
